pIC50, pKi: −log10 of the molar value. Values joined by “and” are separate entries in the source; they are usually repeats but may differ in a detail not shown here. Equal values may be shown once. Read-outs that look alike come from different tables or passages of the source. Ends that are not written are not given here.
Legend:
[1] = target: Lysine-gingipains (P. gingivalis ATCC 33277 whole cell proteases) (Porphyromonas gingivalis, UniProt B2RLK2); format: cell-based, Porphyromonas gingivalis ATCC 33277; conditions: for Activity with ATCC33277, Lys-gingipains: peptide alone 100 μM, activity ± standard deviation
[2] = target: RgpB (Porphyromonas gingivalis, UniProt P95493); conditions: comparison value, cited from earlier work
[3] = test system: Arginine-gingipains (P. gingivalis W50 whole cell proteases); format: cell-based, Porphyromonas gingivalis W50
[4] = test system: Arginine-gingipains (P. gingivalis ATCC 33277 whole cell proteases); format: cell-based, Porphyromonas gingivalis ATCC 33277
[5] = 200 μM peptide concentration (FIG. 2, Table 2)

Molecule | inhibition of whole cell Lys-specific proteolytic activity ([1]; concentration not given) | pIC50 ([2]; read-out: IC50 against RgpB) | pKi ([2]; read-out: RgpB Ki) | Protease activity (%) of the Arginine-gingipains, W50 Whole Cell Proteases [3] [%] | Activity with ATCC33277, Arg-gingipains [4] | Protease activity (%) of the Arginine-gingipains, ATCC 33277 Whole Cell Proteases [4] | inhibition of whole cell Arg-specific proteolytic activity [4] | Protease activity (%) of the Lysine-gingipains, ATCC 33277 Whole Cell Proteases ([1]; 100 μM peptide) [%] | Protease activity (%) of the Lysine-gingipains, ATCC 33277 Whole Cell Proteases ([1]; 200 μM peptide) [%] | inhibition of whole cell Lys-specific proteolytic activity [1, 5] [%] | Protease activity (%) of the Lysine-gingipains, ATCC 33277 Whole Cell Proteases ([1]; 300 μM peptide) [%] | Activity with ATCC33277, Lys-gingipains [1]
YQEPVLGPVRGPF [β-casein(193-205)] | not as potent |  |  |  |  |  |  |  |  |  |  | 
C[C@H]1c2cccc(O)c2C(=O)C2=C(O)[C@]3(O)C(=O)C(C(N)=O)=C(O)[C@@H](N(C)C)[C@@H]3[C@@H](O)[C@@H]21 [doxycycline] |  | 5.52 |  |  |  |  |  |  |  |  |  | 
[H]/N=C(\N/C(=N/[H])NCCCCCCNC(=N)NC(=N)Nc1ccc(Cl)cc1)Nc1ccc(Cl)cc1 [chlorhexidine] |  |  | 3.58 |  |  |  |  |  |  |  |  | 
LPQEVLNENLLRF [αS1-casein(11-23)] | ~60% |  |  | 22 | 18.00 ± 3.53 | 38% and 39% and 62% | ~70% and 40% and ~60% | 64 | 43 | ~60 | 34 | 2.73 ± 0.60
YQEPVLGPVRGPFPIIV [β-casein(193-209)] | 40-50% |  |  | 46 | 20.03 ± 2.51 | 50% and 69% | 50% and 30% and 40-50% | 71 | 59 | 50 | 49 | 3.03 ± 1.20

Reference: patent US20110104179A1 (priority 2009, published 2011)
